From patent US20080199847A1, “Method for Predicting the Metabolism of Drug in Human Liver and Liver Function” (Daiichi Pure Chemicals Co., Ltd., priority 2004, published 2008)
Where “and” joins values, the source holds several entries; their conditions need not be identical. Identical values can stand only once.

Experiment: Radioactivity levels of tissue and plasma samples two hours after administration
Conditions: 5 mg/kg iv
Description: Chimeric mice from PhoenixBio Co., Ltd. were employed.
The pH of the solution was adjusted to 7.0 with a 0.1% aqueous citric acid solution, and the concentration was adjusted to 1 mg/mL with distilled water for injection. The liquid was bolus-administered at 5 mL/kg to the caudal vein of the mice (5 mg/5 mL/kg).
Livers and kidneys were taken from other mice two hours after administration, following sacrificing through exsanguination. Blood plasma was collected by sampling blood through the orbital venousplexus and centrifuging it. Bile was collected from the chimeric mice and the control mice through bile duct cannulation until 72 hours after administration.
Radioactivity of each sample was determined by use of a liquid scintillator (Hionic-flow, product of Perkin-Elmer) with Tri-Carb 2500 (Perkin-Elmer) as a liquid scintillation counter. The measurement was performed for two minutes.
In analysis of blood plasma, bile, and urine, the sample (10 μL) was collected in a 20-mL glass vial, added Hionic-flow (10 mL), and the mixture was analyzed.
In analysis of tissue samples (liver and kidney), an amount 3-fold (by weight) of acetate buffer (0.1M, pH3.0) was added to each sample, and the mixture was homogenized with a polytron-homogenizer. An aliquot (50 μL) of the homogenate was solubilized with 2 mL of Soluene 350 (Perkin-Elmer), added Hionic-flow (10 mL), and the mixture was analyzed.

In the case of `CC(C(=O)O)c1cccc(C(=O)c2ccccc2)c1` (centres unmarked) [ketoprofen, Ketoprofen], the “Concentration (radioactivity level), kidney” value (chimeric mice) is reported as 5.03±1.25 μg eq./mL and 5.03 μg eq./mL and the “Concentration (radioactivity level), kidney” value (control mice) is reported as 4.70±0.61 μg eq./mL and 4.70 μg eq./mL.
